Measured values taken from patent publication US20050107611A1, “Pyrazolyl-substituted triazoloquinoxalines” (priority 2001, published 2005).
Read-outs that look alike come from different tables or passages of the source.

Assays:
adenosine receptors = settings: in words; development for ischemic stroke halted; cited from earlier work
A2A adenosine receptor [1] = target: T1, A2A adenosine receptor (Rattus norvegicus, UniProt P30543); settings: Table 1, literature values; cited from earlier work
A1 adenosine receptor [2] = target: T2, A1 adenosine receptor (Rattus norvegicus, UniProt P25099); settings: cited from earlier work
T2 sequence (P25099 1-326): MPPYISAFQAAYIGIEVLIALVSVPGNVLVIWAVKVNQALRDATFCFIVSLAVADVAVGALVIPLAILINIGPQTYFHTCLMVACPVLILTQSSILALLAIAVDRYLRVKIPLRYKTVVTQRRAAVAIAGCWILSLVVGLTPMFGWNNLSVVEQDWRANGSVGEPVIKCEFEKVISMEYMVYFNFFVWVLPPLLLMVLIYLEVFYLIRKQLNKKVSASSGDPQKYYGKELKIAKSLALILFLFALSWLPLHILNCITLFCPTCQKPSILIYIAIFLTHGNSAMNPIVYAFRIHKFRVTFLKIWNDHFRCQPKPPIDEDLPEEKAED

[3] = in words; cited from earlier work
A2A-receptors = settings: read-out: KiA2A; cited from earlier work
[4] = in words; cited from earlier work; remark: listed apart in the source
A2A adenosine receptor [5] = target: T1, A2A adenosine receptor; test: Receptor binding assay with [3H]MSX-2 on A2A-adenosine receptors; parameters: tissue Pel Freez Company (Rogers, Ark., USA); host or cells: rat brain striatum membranes; settings: for Ki: Table 2, [3H]MSX-2, read-out: A2A K1
From the text: (§1) The data of the biological tests that are cited below results from radioligand-binding assays on A1, A2A, A2B and A3 adenosine receptors (ARs).
(§2) The following selective radioligands are used in the biological tests: • [^3H]CCPA (for A1 ARs) [Klotz et al., Naunyn-Schmiedeberg's Arch. Pharmacol., 340, 679 (1989)] • [^3]MSX-2 (for A2A ARs) [Muiller et al., Eur. J. Pharm. Sci., 10, 259 (2000)] • [^3H]ZM241385 (for A2B ARs_[X.-D. Ji, K. A. Jacobson, Drug Des. Discov., 16, 217 (1999)] • [^3H]PSB-11 (new antagonistic radioligand for human A3 ARs) [M. Dieckmann, M. Thorand, V. Ozola, C. E. Muiller, in Vorbereitung [Preparation] (2001)]. • [^125I]AB-MECA (for rat-A3 ARs) [Olah et al., Mol. Pharmacol., 45, 978 (1994)]. Description of the Assays That are Used for Testing Substances Production of Tissue Preparations Made from Rat Brains
(§3) The cell decomposing of the cerebral cortex is carried out with a glass-Teflon homogenizer (stages 5-6, 10 seconds) in 0.32 M saccharose solution. The membranes are purified over various centrifuging steps. With centrifuging at 600 g, 4° C., for 10 minutes, a large amount of cell debris is separated via the P1 fraction, and the supernatant (P2 fraction) is further worked up: in the subsequent three centrifuging steps (35,000 g; 4° C.; 60 minutes), a pellet is produced that is resuspended in 50 mmol of TRIS buffer, pH 7.4 with the Ultraturrax (stages 3-4, 3 seconds); the respective supernatant is discarded. The striata are added to cold TRIS buffer, homogenized with the Ultraturrax in stages 3 to 4-(3 seconds) and then centrifuged at 35,000 g, 4° C., for 20 minutes. The supernatant is discarded, and the pellet is resuspended in 50 mmol of TRIS buffer (50 mmol, pH 7.4). The washing process is repeated twice more. The membrane preparations are stored at −80° C. and are held for several months. The cerebral cortex membrane preparation is used for A1-radioligand binding studies, and the striatum is used for A2A-radiologiand binding studies.
(§4) The test substances are dissolved in DMSO to 10 mmol. The final concentration of DMSO in the assay is 2.5% for A1- and A2A-adenosine receptor assays and 1-2% for A2B- and A3-assays. Dilution series of the test substances are produced from the stock solution. Five to eight different test concentrations, which comprise 3 orders of magnitude (e.g., 1 nm to 1000 nm), are used.
Receptor Binding Assay with [^3H]MSX-2 on A2A-Adenosine Receptors:
• 25 μl of DMSO, NECA (800 μmol) or test substance dilutions • 775 μl of TRIS buffer (for production, see above) • 100 μl of [^3H]MSX-2 (final concentration 1 nmol; KD value 8 nmol) • 100 μl of rat-striatum-membrane preparation or preparation of CHO cells, which express the human A2A receptor, incubated with 0.12 IE adenosine-deaminase (protein concentration: 25-75 μg/ml) • 1000 μl of final volume
The assay is performed according to the instructions of the receptor-binding assay with [^3H]CCPA with consideration of the amounts and solutions that are listed above. The incubation time is 30 minutes at 23° C. in an oscillating water bath. The glass fiber filter is introduced 30 minutes before use in 0.5% PEI solution.
(§5) The mean value is calculated from three independent experiments. IC50 and K, values are obtained from the Cheng-Prusoff equation, the concentration and the KD value of the radioligand. For calculation, the program GraphPadPrism™, Version 3.0 (GraphPad, San Diego, Calif., USA), was used.

A1 adenosine receptor [6] = target: T2, A1 adenosine receptor; test: Radioligand binding with [3H]CCPA on A1-adenosine receptors, rat brain cortex membranes; parameters: tissue Pel Freez Company (Rogers, Ark., USA); host or cells: rat brain cerebral cortex membranes; settings: Table 2; [3H]CCPA; read-out: A1 K1
From the text: as §1, §2
For the preparations, deep-frozen rat brains of the Pel Freez Company (Rogers, Ark., USA) are used. The rat brains are thawed in 0.32 M saccharose solution, the cortex is cut off, and the striata are prepared outside.
as §3, §4
Radioligand Binding Studies with [^3H]CCPA on A1-Adenosine Receptors:
The mixture is incubated for 90 minutes in an oscillating water bath at 23° C. Then, it is filtered off with a Brandel cell-harvester and washed twice more with ice-cooled TRIS buffer, 50 mmol, pH 7.4 (3 ml). The filter plates are conveyed in scintillation vials, doused with 2.5 ml of Ultima Gold Scintillation cocktail and incubated for at least 6 hours before they are measured in a scintillation counter.
as §5

[7] = Table 1, literature values, read-out: A1 K1

T1 sequence (P30543 whole entry): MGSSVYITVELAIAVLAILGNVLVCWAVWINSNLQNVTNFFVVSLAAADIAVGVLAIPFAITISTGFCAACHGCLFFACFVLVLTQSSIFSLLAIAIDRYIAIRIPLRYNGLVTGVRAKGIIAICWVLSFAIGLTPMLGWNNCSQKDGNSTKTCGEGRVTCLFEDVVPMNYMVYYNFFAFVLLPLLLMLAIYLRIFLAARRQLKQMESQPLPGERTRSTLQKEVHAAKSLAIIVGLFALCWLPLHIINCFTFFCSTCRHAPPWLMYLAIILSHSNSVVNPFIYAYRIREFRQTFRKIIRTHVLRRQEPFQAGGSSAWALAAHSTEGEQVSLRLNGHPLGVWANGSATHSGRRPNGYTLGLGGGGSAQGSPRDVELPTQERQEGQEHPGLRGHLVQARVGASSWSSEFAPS

Ki (A2A adenosine receptor [5]) [µM] | Ki (A1 adenosine receptor [6]) [nM] | Compound | A2A % Inhibition @ 25 μmol (A2A adenosine receptor [1]) | Ki (A1 adenosine receptor [2]; [7]) [nM] | further results
 |  | Nc1nc2ccc(Cl)cc2c2nc(-c3ccco3)nn12 [CGS-15943, 9-Chloro-2-(2-furanyl)-[1,2,4]triazolo[1,5-c]quinazoline-5-amine] |  |  | selectivity (adenosine receptors): inadequate selectivity
 |  | Clc1cc(-c2nc3ccccc3n3c(-c4ccco4)nnc23)[nH]n1 [R = 2-Furyl] | (31% ± 3%) | 410 ± 160 | 
 |  | Clc1cc(-c2nc3ccccc3n3c(-c4cccs4)nnc23)[nH]n1 [R = 2-Thienyl] | (22% ± 13%) | 710 ± 60 | 
 |  | Clc1cc(-c2nc3ccccc3n3c(Cc4cccs4)nnc23)[nH]n1 [R = 2-Thienylmethyl] | (21% ± 10%) |  | Ki (A1 adenosine receptor [2]; read-out: KiA1): 200 nM
 |  | Clc1cc(-c2nc3ccccc3n3c(-c4ccccc4)nnc23)[nH]n1 [R = —C6H5] | (0%) | 1620 ± 680 | 
 |  | Clc1cc(-c2nc3ccccc3n3c(Cc4ccccc4)nnc23)[nH]n1 [R =—CH2C6H5] | (6.1% ± 1.5%) | 310 ± 90 | 
 |  | Nc1nc2c(cnn2CCc2ccccc2)c2nc(-c3ccco3)nn12 [Sch-52861, 2-(2-Furanyl)-7-(2-phenylethyl)-7H-pyrazolo[4,3-e][1,2,4]triazolo[1,5-c]pyrimidine-5-amine] |  |  | solubility [3]: inadequate solubility; Ki (A2A-receptors): 2.3 nM; oral bioavailability [4]: poor oral bioavailability
4.1 | 330 | Clc1cc(-c2nc3ccccc3n3c(-c4ccsc4)nnc23)n[nH]1 [Y = C-(3-Thienyl), R5 = H, R6 = Cl] |  |  | 
> 10 | 620 | Clc1cc(-c2nc3ccccc3n3c(COCc4ccccc4)nnc23)n[nH]1 [Y = C—CH2—O—CH2-Ph, R5 = H, R6 = Cl] |  |  | A2A % inhib. @ 10 μmol (A2A adenosine receptor [5]; 10 μmol): (3%)
1.18 | 100 | CC(Oc1ccccc1)c1nnc2c(-c3cc(Cl)[nH]n3)nc3ccccc3n12 (stereo not drawn) [Y = C—CH—(CH3)—O-Ph, R5 = H, R6 = Cl] |  |  | 
